Bridge positions count the residues as written; N and C are the ends. Square brackets hold non-standard residues; d marks the D form. Peptide text beside a SMILES is read from it. * marks the point of attachment. Trp(1-CH2COOH) = N[C@@H](Cc1cn(CC(=O)O)c2ccccc12)C(=O)O; Trp(1-Me) = Cn1cc(C[C@H](N)C(=O)O)c2ccccc21; Phe(4-F) = N[C@@H](Cc1ccc(F)cc1)C(=O)O; Hyp = O=C(O)[C@@H]1C[C@@H](O)CN1; NMeNle = CCCC[C@H](NC)C(=O)O; Pen = CC(C)(S)[C@H](N)C(=O)O; Pip = O=C(O)[C@@H]1CCCCN1; Dab = NCC[C@H](N)C(=O)O; Dap = NC[C@H](N)C(=O)O; Piv = CC(C)(C)C(=O)*
Target: T1, PD-1/PD-L1 (Homo sapiens, UniProt Q9NZQ7)
T1 construct: TVMV protease site linker (C); made in house; host or cells: HEK293T cells
Experiment: PD-1/PD-L1 Homogenous Time-Resolved Fluorescence (HTRF) binding assay
Details: PD-L1-His 10 nM final, PD-1-Ig 20 nM final; inhibitors pre-incubated with PD-L1-His for 15 m
Method in brief: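 Compounds pre-incubated 15 min with human PD-L1(18-239)-His (10 nM final), then PD-1(25-167)-Ig (20 nM final) added for 15 min, in dPBS with 0.1% BSA and 0.05% Tween-20. Eu-cryptate anti-Ig (1 nM) and APC anti-His (20 nM) added, 30 min equilibration, 665/620 nm ratio read; IC50 reported.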

For `CCCC[C@H]1C(=O)N(C)[C@@H](CCCC)C(=O)N[C@@H](CCC(=O)O)C(=O)N[C@H](C(N)=O)CSCC(=O)N[C@@H](Cc2ccc(F)cc2)C(=O)N2CCCC[C@H]2C(=O)N[C@@H](CC(N)=O)C(=O)N2CCC[C@H]2C(=O)N[C@@H](CNC(=O)C(C)(C)C)C(=O)N[C@@H](CC(C)C)C(=O)N2C[C@H](O)C[C@H]2C(=O)N[C@@H](Cc2c[nH]c3ccccc23)C(=O)N[C@@H](CCNC(=O)C(C)(C)C)C(=O)N[C@@H](Cc2cn(CC(=O)O)c3ccccc23)C(=O)N1C` [Example 20030] ({CH2CO}-[Phe(4-F)][Pip]NP[Dap](Piv)L[Hyp]W[Dab](Piv)[Trp(1-CH2COOH)][NMeNle][NMeNle]EC-NH2; thioether N-14), which IC50 is on record?
The IC50 was 7.8 nM.

With `CCCC[C@H]1C(=O)N(C)[C@@H](CCCC)C(=O)N[C@@H](CC(C)C)C(=O)N[C@H](C(N)=O)CSCC(=O)N[C@@H](Cc2ccc(F)cc2)C(=O)N2CCCC[C@H]2C(=O)N[C@@H](CC(=O)O)C(=O)N2CCC[C@H]2C(=O)N[C@@H](CNC(=O)C(C)(C)C)C(=O)N[C@@H](CC(C)C)C(=O)N2CCC[C@H]2C(=O)N[C@@H](Cc2c[nH]c3ccccc23)C(=O)N[C@@H](CCNC(=O)C(C)(C)C)C(=O)N[C@@H](Cc2cn(CC(=O)O)c3ccccc23)C(=O)N1C` [Example 20040] ({CH2CO}-[Phe(4-F)][Pip]DP[Dap](Piv)LPW[Dab](Piv)[Trp(1-CH2COOH)][NMeNle][NMeNle]LC-NH2; thioether N-14) as the compound, how does the IC50 read?
Its IC50 is 8.3 nM.

How did the IC50 turn out when `CCCC[C@H]1C(=O)N(C)[C@@H](CCCC)C(=O)N[C@@H](CC(C)C)C(=O)N[C@H](C(N)=O)CSCC(=O)N[C@@H](Cc2ccc(F)cc2)C(=O)N2CCCC[C@H]2C(=O)N[C@@H](CC(=O)O)C(=O)N2CCC[C@H]2C(=O)N[C@@H](CNC(=O)C(C)(C)C)C(=O)N[C@@H](CC(C)C)C(=O)N2C[C@H](O)C[C@H]2C(=O)N[C@@H](Cc2c[nH]c3ccccc23)C(=O)N[C@@H](CCN)C(=O)N[C@@H](Cc2cn(CC(=O)O)c3ccccc23)C(=O)N1C` [Example 20050] ({CH2CO}-[Phe(4-F)][Pip]DP[Dap](Piv)L[Hyp]W[Dab][Trp(1-CH2COOH)][NMeNle][NMeNle]LC-NH2; thioether N-14) was run?
The IC50 was 10.4 nM.

Which IC50 does the source give for `CCCC[C@H]1C(=O)N(C)[C@@H](CCCC)C(=O)N[C@@H](CC(C)C)C(=O)N[C@H](C(N)=O)C(C)(C)SCC(=O)N[C@@H](Cc2ccc(F)cc2)C(=O)N2CCCC[C@H]2C(=O)N[C@@H](CC(=O)O)C(=O)N2CCC[C@H]2C(=O)N[C@@H](CNC(=O)C(C)(C)C)C(=O)N[C@@H](CC(C)C)C(=O)N2C[C@H](O)C[C@H]2C(=O)N[C@@H](Cc2c[nH]c3ccccc23)C(=O)N[C@@H](CCN)C(=O)N[C@@H](Cc2cn(CC(=O)O)c3ccccc23)C(=O)N1C` [Example 20060] ({CH2CO}-[Phe(4-F)][Pip]DP[Dap](Piv)L[Hyp]W[Dab][Trp(1-CH2COOH)][NMeNle][NMeNle]L[Pen]-NH2; thioether N-14) here?
The IC50 was 10.4 nM.

With `CCCC[C@H]1C(=O)N(C)[C@@H](CCCC)C(=O)N[C@@H](CCC(=O)O)C(=O)N[C@H](C(N)=O)CSCC(=O)N[C@@H](Cc2ccc(F)cc2)C(=O)N2CCCC[C@H]2C(=O)N[C@@H](CC(=O)O)C(=O)N2CCC[C@H]2C(=O)N[C@@H](CNC(=O)C(C)(C)C)C(=O)N[C@@H](CC(C)C)C(=O)N2C[C@H](O)C[C@H]2C(=O)N[C@@H](Cc2c[nH]c3ccccc23)C(=O)N[C@@H](CCNC(=O)C(C)(C)C)C(=O)N[C@@H](Cc2cn(CC(=O)O)c3ccccc23)C(=O)N1C` [Example 20070] ({CH2CO}-[Phe(4-F)][Pip]DP[Dap](Piv)L[Hyp]W[Dab](Piv)[Trp(1-CH2COOH)][NMeNle][NMeNle]EC-NH2; thioether N-14) as the compound, how does the IC50 read?
The IC50 was 10.5 nM.

How did the IC50 turn out when `CCCC[C@H]1C(=O)N(C)[C@@H](CCCC)C(=O)N[C@@H](C(C)C)C(=O)N[C@H](C(N)=O)CSCC(=O)N[C@@H](Cc2ccc(F)cc2)C(=O)N2CCCC[C@H]2C(=O)N[C@@H](CC(=O)O)C(=O)N2CCC[C@H]2C(=O)N[C@@H](CNC(=O)C(C)(C)C)C(=O)N[C@@H](CCCCN)C(=O)N2C[C@H](O)C[C@H]2C(=O)N[C@@H](Cc2c[nH]c3ccccc23)C(=O)N[C@@H](CCNC(=O)C(C)(C)C)C(=O)N[C@@H](Cc2cn(CC(=O)O)c3ccccc23)C(=O)N1C` [Example 20080] ({CH2CO}-[Phe(4-F)][Pip]DP[Dap](Piv)K[Hyp]W[Dab](Piv)[Trp(1-CH2COOH)][NMeNle][NMeNle]VC-NH2; thioether N-14) was run?
The IC50 was 10.7 nM.

For `CCCC[C@H]1C(=O)N(C)[C@@H](CCCC)C(=O)N[C@@H](CC(C)C)C(=O)N[C@H](C(N)=O)CSCC(=O)N[C@@H](Cc2ccc(F)cc2)C(=O)N2CCCC[C@H]2C(=O)N[C@@H](CC(=O)O)C(=O)N2CCC[C@H]2C(=O)N[C@@H](CNC(=O)C(C)(C)C)C(=O)N[C@@H](CCCCN)C(=O)N2C[C@H](O)C[C@H]2C(=O)N[C@@H](Cc2c[nH]c3ccccc23)C(=O)N[C@@H](CCNC(=O)C(C)(C)C)C(=O)N[C@@H](Cc2cn(CC(=O)O)c3ccccc23)C(=O)N1C` [Example 20090] ({CH2CO}-[Phe(4-F)][Pip]DP[Dap](Piv)K[Hyp]W[Dab](Piv)[Trp(1-CH2COOH)][NMeNle][NMeNle]LC-NH2; thioether N-14), which IC50 is on record?
The IC50 was 11.1 nM.

Which IC50 does the source give for `CCCC[C@H]1C(=O)N(C)[C@@H](CCCC)C(=O)N[C@@H](CCC(=O)O)C(=O)N[C@H](C(N)=O)CSCC(=O)N[C@@H](Cc2ccc(F)cc2)C(=O)N2CCCC[C@H]2C(=O)N[C@@H](CC(N)=O)C(=O)N2CCC[C@H]2C(=O)N[C@@H](CNC(=O)C(C)(C)C)C(=O)N[C@@H](CC(C)C)C(=O)N2CCC[C@H]2C(=O)N[C@@H](Cc2c[nH]c3ccccc23)C(=O)N[C@@H](CCN)C(=O)N[C@@H](Cc2cn(CC(=O)O)c3ccccc23)C(=O)N1C` [Example 20110] ({CH2CO}-[Phe(4-F)][Pip]NP[Dap](Piv)LPW[Dab][Trp(1-CH2COOH)][NMeNle][NMeNle]EC-NH2; thioether N-14) here?
The IC50 was 11.7 nM.

For `CCCC[C@H]1C(=O)N(C)[C@@H](CCCC)C(=O)N[C@@H](CC(C)C)C(=O)N[C@H](C(N)=O)C(C)(C)SCC(=O)N[C@@H](Cc2ccc(F)cc2)C(=O)N2CCCC[C@H]2C(=O)N[C@@H](CC(N)=O)C(=O)N2CCC[C@H]2C(=O)N[C@@H](CNC(=O)C(C)(C)C)C(=O)N[C@@H](CC(C)C)C(=O)N2C[C@H](O)C[C@H]2C(=O)N[C@@H](Cc2c[nH]c3ccccc23)C(=O)N[C@@H](CCN)C(=O)N[C@@H](Cc2cn(C)c3ccccc23)C(=O)N1C` [Example 20120] ({CH2CO}-[Phe(4-F)][Pip]NP[Dap](Piv)L[Hyp]W[Dab][Trp(1-Me)][NMeNle][NMeNle]L[Pen]-NH2; thioether N-14), which IC50 is on record?
The IC50 was 11.8 nM.

`CCCC[C@H]1C(=O)N(C)[C@@H](CCCC)C(=O)N[C@@H](CCC(=O)O)C(=O)N[C@H](C(N)=O)CSCC(=O)N[C@@H](Cc2ccc(F)cc2)C(=O)N2CCCC[C@H]2C(=O)N[C@@H](CC(N)=O)C(=O)N2CCC[C@H]2C(=O)N[C@@H](CNC(=O)C(C)(C)C)C(=O)N[C@@H](CC(C)C)C(=O)N2C[C@H](O)C[C@H]2C(=O)N[C@@H](Cc2c[nH]c3ccccc23)C(=O)N[C@@H](CCN)C(=O)N[C@@H](Cc2cn(CC(=O)O)c3ccccc23)C(=O)N1C` [Example 20130] ({CH2CO}-[Phe(4-F)][Pip]NP[Dap](Piv)L[Hyp]W[Dab][Trp(1-CH2COOH)][NMeNle][NMeNle]EC-NH2; thioether N-14) was tested. Which IC50 did it give?
Its IC50 is 11.8 nM.
